How the values were obtained:
[1] = Stability testing of SASKINE50 blends at 50° C., analysed by GC (Example 2); conditions: for loss of SASKINE50 (3-[(2-ethylhexyl)oxy]-1,2-propanediol) assay on storage: one month, 725 ppm antioxidant in 99.6% pure SASKINE50, FIG. 3
Description: The blend is analyzed via gas chromatography (GC) prior to stability testing. Following the analysis result, the blend is placed under atmospheric pressure and under an inert gas into individual sample bottles as not to disturb the testing conditions during sampling. The test conditions are 50° C. for one month. […] These test conditions are considered to simulate a shelf-life of approximately one year at room temperature.
The samples are dissolved in isopropyl alcohol at a concentration of 10% for the GC analysis. The following GC conditions are used:
Column: • Material: fused silica WCOT • Length: 30 m • Internal diameter: 0.32 mm • Stationary phase: DB1701 • Film thickness: 1 μm • Gas regulation: Carrier gas: hydrogen • Make-up gas: helium • Temperatures: Detector: 300° C. • Injector: 275° C. • Start temperature: 115° C. • Warm up speed 1: 8° C./minute • End temperature: 210° C. • Warm up speed 2: 15° C./minute • End temperature: 275° C.
Detection: Type detector: FID

[2] = Stability testing of SASKINE80 blend at 50° C., analysed by GC (Example 3); format: physicochemical
Description: In this example, SACHEM's SASKINE80™ is used as basis for the stability testing of […] within the scope of the present invention, i.e., naringenin. A pre-defined blend containing SASKINE80™ and this anti-oxidant compound in accordance with the present invention are prepared, the blend containing 725 ppm of the naringenin in 99.6% pure SASKINE80™ (3-[(n-octyl)oxy]-1,2-propanediol). […] The test conditions are 50° C. for two weeks and four weeks.

[3] = test system: microbial strain (bacteria, yeasts, molds); assay: Minimum inhibitory concentration (MIC) determination; format: cell-based; conditions: FIG. 7; compared to plain material and Sensiva
Description: As discussed in the background, the purpose of the glyceryl ether compounds such as SASKINE50™ and SASKINE80™ is as a preservative and antimicrobial, especially in cosmetics and pharmaceutical preparations. To test the SASKINE50™ and SASKINE80™, minimum inhibitory concentrations are determined for SASKINE50™ alone, SASKINE50™ with naringenin, SASKINE80™ alone, and SASKINE80™ with naringenin, and, for comparison, Sensiva® SC 50, which contains 3-[(2-ethylhexyl)oxy]-1,2-propanediol and synthetic alpha-tocopherol, which is commercially available from Schülke & Mayr Benelux B.V., 2032 HA-Haarlem, Netherlands. The determination of the minimal inhibitory concentration (MIC) is carried out according to the standard procedure described below.
The purpose of the MIC study is to find a minimum concentration of the test item which will enable to inhibit in vitro the growth of a microbial strain. The MIC characterizes the bacteriostatic or fungistatic effect of a product.
In the MIC test, the product is diluted according to a geometric progression of reason 2 over a range of at least 5 dilutions starting from the maximum concentration to be tested specified by the customer. In each tube of the dilution range, a cultured medium double concentered is included with the strains to be tested. […]

[4] = test system: human reconstructed epidermis (SkinEthic model); assay: In vitro skin irritation study, SkinEthic model, OECD 439; format: cell-based; conditions: pure product applied 42 minutes, 42 hours incubation; MTT viability and IL1-α; FIG. 8
Description: As noted herein, the inventive compositions are intended for use in cosmetic and pharmaceutical compositions. One important criteria for such products is that there be no skin irritation, when the compositions are applied to the skin of the person using the cosmetic or pharmaceutical composition. To test the compositions of the present invention, a non-animal test is conducted, which is an in vitro skin irritation study of the compositions on human reconstructed epidermis known as the SkinEthic model, OECD 439. […] After the pure product has been applied to the epidermis for 42 minutes and they have been incubated for 42 hours post-treatment, cell viability is determined by measuring mitochondrial succinate dehydrogenase activity in living cells. […] A spectrophotometer is used to read the results after the crystals have been dissolved. The measured absorbances are proportional to the number of living cells. In addition, release of inflammation (IL1-α) mediators is measured by colorimeter if cell viability is over 50%. […] Cytotoxicity: absorbance is measured three times at 540 nm. The results are expressed as a viability percentage compared to a negative control: […]
IL1-α titration: IL1-α concentrations in the culture media are evaluated using the instructions on the titration kit and are expressed as pg/ml. […]

[5] = Stability testing at room temperature: formation of formaldehyde and peroxides (Example 1); format: physicochemical; conditions: zero time
Description: The thus-prepared compositions are subjected to stability testing, under which formation of formaldehyde and peroxides and determined as indicators of stability, in which higher amounts of formaldehyde and/or peroxides are deemed to show lower stability of the mixture. […] This sample is obtained commercially from Schulke GmbH. The tests for all samples determine the formaldehyde and peroxide contents of the test sample when stored at room temperature (RT), for periods of 0, 2, 4, 6, 8, 10 and 12 months. The 0 month sample is the freshly prepared composition.

With `C[C@@H]1O[C@@H](O[C@H]2[C@H](Oc3cc(O)c4c(c3)O[C@H](c3ccc(O)cc3)CC4=O)O[C@H](CO)[C@@H](O)[C@@H]2O)[C@H](O)[C@H](O)[C@H]1O` [naringin hydrate] the “loss of SASKINE50 (3-[(2-ethylhexyl)oxy]-1,2-propanediol) assay on storage” value (“loss of SASKINE50” below) [1] was “performed less well”.

With `O.O=c1c(O)c(-c2ccc(O)cc2O)oc2cc(O)cc(O)c12` [norinhydrate] the “loss of SASKINE50” value [1] was “almost no loss”.

For `O=c1c(O)c(-c2ccc(O)c(O)c2)oc2cc(O)cc(O)c12` [quercetin], the “loss of SASKINE50” value [1] was “almost no loss”.

With `CCCCCCCCOCC(O)CO` (centres unmarked) [SASKINE80™, 3-[(n-octyl)oxy]-1,2-propanediol] the “increase in low boiling compounds” value ([2]; two and four weeks, FIG. 5b) was “notable increase”, the SASKINE80 assay decrease ([2]; two weeks and four weeks, FIG. 5a) was “about 0.40%” and the “minimum inhibitory concentration (anti-microbial growth)” value [3] was “even better performance”.

For `COc1cc(O)c2c(=O)c(O)c(-c3ccc(O)c(O)c3)oc2c1` [rhamnetin], the “loss of SASKINE50” value [1] was “almost no loss”.

With `COc1ccc(-c2cc(=O)c3c(O)cc(O)cc3o2)cc1O` [diosmetin] the “loss of SASKINE50” value [1] was “almost no loss”.

In the case of `CCCCC(CC)COCC(O)CO` (centres unmarked) [SASKINE50™, 3-[(2-ethylhexyl)oxy]-1,2-propanediol], the “increase in volatile degradation products (low boiling compounds)” value ([1]; 2 weeks and 4 weeks, 725 ppm antioxidant in SASKINE50, FIG. 4) was “significant amount of breakdown products”, the “loss of SASKINE50” value [1] was “significant loss” and the skin irritation classification [4] was “irritant of category 1 or 2”. For the same compound, the peroxide present ([5]; Example 1, FIG. 1) was “measurable, non-zero amount” and the formaldehyde present ([5]; Example 1, FIG. 2) was “measurable, non-zero amount”.

In the case of `O=C1C[C@@H](c2ccc(O)cc2)Oc2cc(O)cc(O)c21` [naringenin], the “loss of SASKINE50” value [1] was “almost no loss”.

From US20220088199A1, “METHOD FOR PROTECTING GLYCEROL ALKYL ETHERS FROM OXIDATION” (SACHEM, INC., priority 2016, published 2022)
